# Experimental data published in US20230158025A1 (UNIVERSITY OF UTAH RESEARCH FOUNDATION, priority 2020, published 2023).
# Like-named read-outs stand apart in the source and are kept apart here.
# What was measured:
# [1] = molecular target: recombinant human GALK1 (Homo sapiens, UniProt P51570); test: hGALK1 biochemical activity assay (Kinase-Glo Plus, ATP depletion)
# Method in brief: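 Recombinant human or mouse GALK1 (5 nM, with 100 μM galactose, in the added enzyme solution) was run with ATP (35 μM in the substrate solution) in HEPES pH 8.0 buffer. Compounds were tested at 11 1/3-step concentrations from 57.4 μM to 0.97 nM. After 1 h at room temperature, remaining ATP was read by Kinase-Glo Plus luminescence.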
# [2] = molecular target: recombinant mouse GALK1 (Mus musculus, UniProt Q9R0N0); test: mGALK1 biochemical activity assay (Kinase-Glo Plus, ATP depletion)
# Chain of recombinant mouse GALK1 (Q9R0N0 whole entry): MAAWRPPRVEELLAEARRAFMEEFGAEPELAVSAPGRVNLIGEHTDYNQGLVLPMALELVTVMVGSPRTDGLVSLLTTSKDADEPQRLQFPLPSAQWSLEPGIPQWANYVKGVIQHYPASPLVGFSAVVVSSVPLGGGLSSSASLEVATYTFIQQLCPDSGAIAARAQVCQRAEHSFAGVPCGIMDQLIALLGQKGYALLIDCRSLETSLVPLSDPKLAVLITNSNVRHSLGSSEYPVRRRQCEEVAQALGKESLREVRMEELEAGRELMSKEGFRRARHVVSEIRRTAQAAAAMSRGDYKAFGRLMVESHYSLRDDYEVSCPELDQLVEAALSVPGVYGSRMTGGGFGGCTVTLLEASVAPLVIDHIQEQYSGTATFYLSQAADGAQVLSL
# Method in brief: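 Recombinant GALK1 (5 nM) with 100 μM galactose; GALK1 turnover read as ATP depletion by Kinase-Glo Plus luminescence. Reaction ran 1 h at room temperature before detection reagent was added.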
# [3] = PAMPA permeability
# [4] = aqueous kinetic solubility
# [5] = rat microsomal stability (RLM)
# [6] = Tables 2-15, 35 μM ATP, 100 μM galactose, 1 h, bracketed figure after some values (e.g. −1.2) is undefined and not reported, read-out: hGALK IC50
# [7] = recombinant human GALK1, Kinase-Glo Plus ATP depletion, read-out: hGALK
# [8] = Tables 2-15, 35 μM ATP, 100 μM galactose, 1 h, bracketed figure after some values is undefined and not reported, read-out: mGALK IC50
# [9] = recombinant mouse GALK1, Kinase-Glo Plus ATP depletion, read-out: mGALK
# Chain of recombinant human GALK1 (P51570 whole entry): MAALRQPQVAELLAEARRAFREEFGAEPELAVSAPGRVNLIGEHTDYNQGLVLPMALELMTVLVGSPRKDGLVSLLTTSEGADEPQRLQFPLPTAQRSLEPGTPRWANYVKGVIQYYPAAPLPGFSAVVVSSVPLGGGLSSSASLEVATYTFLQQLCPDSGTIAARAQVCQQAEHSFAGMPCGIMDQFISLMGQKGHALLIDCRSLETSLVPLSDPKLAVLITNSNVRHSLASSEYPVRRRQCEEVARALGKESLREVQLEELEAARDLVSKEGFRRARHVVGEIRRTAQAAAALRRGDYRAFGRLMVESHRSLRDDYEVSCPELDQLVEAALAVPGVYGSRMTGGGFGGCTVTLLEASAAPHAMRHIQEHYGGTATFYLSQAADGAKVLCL
smiles,measurement,setting,value
"CCn1cc(CNC(=O)C2=C(C)NC(Nc3nc4ccc(F)cc4o3)=NC2c2ccc(C)cc2Cl)cn1 (stereo not drawn) [Compound 112, 4-(2-chloro-4-methylphenyl)-N-((1-ethyl-1H-pyrazol-4-yl)methyl)-2-((6-fluorobenzo[d]oxazol-2-yl)amino)-6-methyl-1,4-dihydropyrimidine-5-carboxamide]",IC50,[1]; [6],1220 nM
same,IC50,[1]; [7],1220 nM
same,IC50,[2]; [8],6.85 µM
same,IC50,[2]; [9],6.85 µM
same,Perm. (1 × 10^−6 cm/sec),[3],<21.9 1 × 10^−6 cm/sec
same,Sol.,[4],<1 µg/mL
same,Metab. Stabil. (m),[5]; microsomal half-life,9.22 m
"CC1=C(C(=O)NCc2c(C)nn(C)c2C)C(c2ccc(C)cc2Cl)N=C(Nc2nc3cccc(N)c3o2)N1 (stereo not drawn) [Compound 113, 2-((7-aminobenzo[d]oxazol-2-yl)amino)-4-(2-chloro-4-methylphenyl)-6-methyl-N-((1,3,5-trimethyl-1H-pyrazol-4-yl)methyl)-1,4-dihydropyrimidine-5-carboxamide]",IC50,[1]; [6],1220 nM
same,IC50,[1]; [7],1220 nM
same,IC50,[2]; [8],6.85 µM
same,IC50,[2]; [9],6.85 µM
same,Perm. (1 × 10^−6 cm/sec),[3],127.92 1 × 10^−6 cm/sec
same,Sol.,[4],12.0 µg/mL
same,Metab. Stabil. (m),[5]; microsomal half-life,2.369 m
"CC1=C(C(=O)NCc2cnn(Cc3ccccc3)c2)C(c2ccc(C)cc2Cl)N=C(Nc2nc3cccc(N)c3o2)N1 (stereo not drawn) [Compound 114, 2-((7-aminobenzo[d]oxazol-2-yl)amino)-N-((1-benzyl-1H-pyrazol-4-yl)methyl)-4-(2-chloro-4-methylphenyl)-6-methyl-1,4-dihydropyrimidine-5-carboxamide]",IC50,[1]; [6],390 nM
same,IC50,[1]; [7],390 nM
same,IC50,[2]; [8],5.44 µM
same,IC50,[2]; [9],5.44 µM
same,Perm. (1 × 10^−6 cm/sec),[3],103.8 1 × 10^−6 cm/sec
same,Sol.,[4],<1 µg/mL
same,Metab. Stabil. (m),[5]; microsomal half-life,6.732 m
"CC1=C(C(=O)NCc2cnn(C)c2)[C@H](c2ccc(C)cc2Cl)N=C(Nc2nc3cccc(N)c3o2)N1 [Compound 115, (R)-2-((7-aminobenzo[d]oxazol-2-yl)amino)-4-(2-chloro-4-methylphenyl)-6-methyl-N-((1-methyl-1H-pyrazol-4-yl)methyl)-1,4-dihydropyrimidine-5-carboxamide]",IC50,[1]; [7],130 nM
same,IC50,[2]; [9],1.58 µM
same,Perm. (1 × 10^−6 cm/sec),[3],416.8 1 × 10^−6 cm/sec
same,Sol.,[4],17.14 µg/mL
same,Metab. Stabil. (m),[5]; microsomal half-life,18.91 m
"CC1=C(C(=O)NCc2cnn(C)c2)[C@@H](c2ccc(C)cc2Cl)N=C(Nc2nc3cccc(N)c3o2)N1 [Compound 116, (S)-2-((7-aminobenzo[d]oxazol-2-yl)amino)-4-(2-chloro-4-methylphenyl)-6-methyl-N-((1-methyl-1H-pyrazol-4-yl)methyl)-1,4-dihydropyrimidine-5-carboxamide]",IC50,[1]; [7],12200 nM
same,IC50,[2]; [9],30.6 µM
same,Perm. (1 × 10^−6 cm/sec),[3],326.9 1 × 10^−6 cm/sec
same,Sol.,[4],21.9 µg/mL
same,Metab. Stabil. (m),[5]; microsomal half-life,7.868 m
"CCn1cc(CNC(=O)C2=C(C)NC(Nc3nc4cccc(N)c4o3)=NC2c2ccc(C)cc2Cl)cn1 (stereo not drawn) [Compound 117, 2-((7-aminobenzo[d]oxazol-2-yl)amino)-4-(2-chloro-4-methylphenyl)-6-methyl-N-((1-ethyl-1H-pyrazol-4-yl)methyl)-1,4-dihydropyrimidine-5-carboxamide]",IC50,[1]; [7],170 nM
same,IC50,[2]; [8],3.06 µM
same,Perm. (1 × 10^−6 cm/sec),[3],360.4 1 × 10^−6 cm/sec
same,Sol.,[4],2.43 µg/mL
same,Metab. Stabil. (m),[5]; microsomal half-life,11.3 m
"CC1=C(C(=O)NCc2cnn(C)c2)C(c2ccc(F)cc2Cl)N=C(Nc2nc3cccc(N)c3o2)N1 (stereo not drawn) [Compound 119, 2-((7-aminobenzo[d]oxazol-2-yl)amino)-4-(2-chloro-4-fluorophenyl)-N-((1-methyl-1H-pyrazol-4-yl)methyl)-6-methyl-1,4-dihydropyrimidine-5-carboxamide]",IC50,[1]; [7],680 nM
same,IC50,[2]; [9],6.85 µM
same,Perm. (1 × 10^−6 cm/sec),[3]; PAMPA,17.14 1 × 10^−6 cm/sec
same,Sol.,[4]; aqueous kinetic solubility,49.6 µg/mL
same,Metab. Stabil. (m),[5]; microsomal stability half-life,29.59 m
"CCn1cc(CNC(=O)C2=C(C)NC(Nc3nc4cccc(N)c4o3)=NC2c2ccc(Cl)cc2Cl)cn1 (stereo not drawn) [Compound 120, 2-((7-aminobenzo[d]oxazol-2-yl)amino)-4-(2,4-dichlorophenyl)-N-((1-ethyl-1H-pyrazol-4-yl)methyl)-6-methyl-1,4-dihydropyrimidine-5-carboxamide]",IC50,[1]; [7],480 nM
same,IC50,[2]; [9],8.63 µM
same,Perm. (1 × 10^−6 cm/sec),[3]; PAMPA,289.5 1 × 10^−6 cm/sec
same,Sol.,[4]; aqueous kinetic solubility,4.6 µg/mL
same,Metab. Stabil. (m),[5]; microsomal stability half-life,14.14 m
"CC1=C(C(=O)NCc2cnn(C)c2)C(c2ccc(Cl)cc2Cl)N=C(Nc2nc3cccc(N)c3o2)N1 (stereo not drawn) [Compound 123, 2-((7-aminobenzo[d]oxazol-2-yl)amino)-4-(2,4-dichlorophenyl)-N-((1-methyl-1H-pyrazol-4-yl)methyl)-6-methyl-1,4-dihydropyrimidine-5-carboxamide]",IC50,[1]; [7],1090 nM
same,IC50,[2]; [9],6.85 µM
same,Perm. (1 × 10^−6 cm/sec),[3]; PAMPA,142.4 1 × 10^−6 cm/sec
same,Sol.,[4]; aqueous kinetic solubility,15.63 µg/mL
same,Metab. Stabil. (m),[5]; microsomal stability half-life,17.76 m
CC1=C(C(=O)NCc2cnn(C)c2C)C(c2ccc(C)cc2Cl)N=C(Nc2nc3ccc(F)cc3o2)N1 (stereo not drawn) [Compound 124],IC50,[1]; [6],490 nM
same,IC50,[1]; [7],490 nM
same,IC50,[2]; [8],3.43 µM
same,IC50,[2]; [9],3.43 µM
same,Perm. (1 × 10^−6 cm/sec),[3]; PAMPA,460.2 1 × 10^−6 cm/sec
same,Sol.,[4]; aqueous kinetic solubility,<1 µg/mL
same,Metab. Stabil. (m),[5]; microsomal stability half-life,2.993 m
"CC1=C(C(=O)NCc2cnn(C)c2)C(c2ccc(Cl)cc2Cl)N=C(Nc2nc3ccc(F)c(N)c3o2)N1 (stereo not drawn) [Compound 127, 2-((7-amino-6-fluorobenzo[d]oxazol-2-yl)amino)-4-(2,4-dichlorophenyl)-6-methyl-N-((1-methyl-1H-pyrazol-4-yl)methyl)-1,4-dihydropyrimidine-5-carboxamide]",IC50,[1]; [7],220 nM
same,IC50,[2]; [9],1.93 µM
same,Perm. (1 × 10^−6 cm/sec),[3]; PAMPA,166.7 1 × 10^−6 cm/sec
same,Sol.,[4]; aqueous kinetic solubility,5.9 µg/mL
same,Metab. Stabil. (m),[5]; microsomal stability half-life,>30 m
"CC1=C(C(=O)NCc2cnn(C)c2)C(c2ccc(C)cc2Cl)N=C(Nc2nc3ccc(F)c(C(=O)O)c3o2)N1 (stereo not drawn) [Compound 128, 2-((4-(2-chloro-4-methylphenyl)-6-methyl-5-(((1-methyl-1H-pyrazol-4-yl)methyl)carbamoyl)-1,4-dihydropyrimidin-2-yl)amino)-6-fluorobenzo[d]oxazole-7-carboxylic acid]",IC50,[1]; [7],17200 nM
same,IC50,[2]; [9],21.7 µM
same,Perm. (1 × 10^−6 cm/sec),[3]; PAMPA,<1 1 × 10^−6 cm/sec
same,Sol.,[4]; aqueous kinetic solubility,26.3 µg/mL
same,Metab. Stabil. (m),[5]; microsomal stability half-life,>30 m
"CCn1nc(C)c(CNC(=O)C2=C(C)NC(Nc3nc4ccc(F)c(N)c4o3)=NC2c2ccc(C)cc2Cl)c1F (stereo not drawn) [Compound 129, 2-((7-amino-6-fluorobenzo[d]oxazol-2-yl)amino)-4-(2-chloro-4-methylphenyl)-N-((1-ethyl-5-fluoro-3-methyl-1H-pyrazol-4-yl)methyl)-6-methyl-1,4-dihydropyrimidine-5-carboxamide]",IC50,[1]; [6],430 nM
same,IC50,[1]; [7],430 nM
same,IC50,[2]; [8],2.17 µM
same,IC50,[2]; [9],2.17 µM
same,Perm. (1 × 10^−6 cm/sec),[3]; PAMPA,187.9 1 × 10^−6 cm/sec
same,Sol.,[4]; aqueous kinetic solubility,1.53 µg/mL
same,Metab. Stabil. (m),[5]; microsomal stability half-life,3.55 m
"CCn1cc(CNC(=O)C2=C(C)NC(Nc3nc4ccc(F)c(N)c4o3)=NC2c2ccc(Cl)cc2Cl)cn1 (stereo not drawn) [Compound 130, 2-((7-amino-6-fluorobenzo[d]oxazol-2-yl)amino)-4-(2,4-dichlorophenyl)-N-((1-ethyl-1H-pyrazol-4-yl)methyl)-6-methyl-1,4-dihydropyrimidine-5-carboxamide]",IC50,[1]; [7],270 nM
same,IC50,[2]; [9],1.93 µM
same,Perm. (1 × 10^−6 cm/sec),[3]; PAMPA,380.3 1 × 10^−6 cm/sec
same,Sol.,[4]; aqueous kinetic solubility,<1 µg/mL
same,Metab. Stabil. (m),[5]; microsomal stability half-life,6.787 m
"CC1=C(C(=O)NCc2cnn(CC(F)(F)F)c2)C(c2ccc(C)cc2Cl)N=C(Nc2nc3ccc(F)c(N)c3o2)N1 (stereo not drawn) [Compound 131, 2-((7-amino-6-fluorobenzo[d]oxazol-2-yl)amino)-4-(2-chloro-4-methylphenyl)-6-methyl-N-((1-(2,2,2-trifluoroethyl)-1H-pyrazol-4-yl)methyl)-1,4-dihydropyrimidine-5-carboxamide]",IC50,[1]; [6],190 nM
same,IC50,[1]; [7],190 nM
same,IC50,[2]; [8],3.06 µM
same,IC50,[2]; [9],3.06 µM
same,Perm. (1 × 10^−6 cm/sec),[3]; PAMPA,193.1 1 × 10^−6 cm/sec
same,Sol.,[4]; aqueous kinetic solubility,1.56 µg/mL
same,Metab. Stabil. (m),[5]; microsomal stability half-life,18.69 m
